The values below come from patent US7799824B2, “Quaternary salt CCR2 antagonists” (OraPharma, Inc., priority 2004, dated 2010).

Several values for one entry are separate records, joined by “and”; a condition that tells them apart may be missing. Equal entries are not always repeated.

For the first assay, the target named is T1, CCR2 (Homo sapiens, UniProt P41597).
T1 sequence (P41597 1-360 isoform P41597-2): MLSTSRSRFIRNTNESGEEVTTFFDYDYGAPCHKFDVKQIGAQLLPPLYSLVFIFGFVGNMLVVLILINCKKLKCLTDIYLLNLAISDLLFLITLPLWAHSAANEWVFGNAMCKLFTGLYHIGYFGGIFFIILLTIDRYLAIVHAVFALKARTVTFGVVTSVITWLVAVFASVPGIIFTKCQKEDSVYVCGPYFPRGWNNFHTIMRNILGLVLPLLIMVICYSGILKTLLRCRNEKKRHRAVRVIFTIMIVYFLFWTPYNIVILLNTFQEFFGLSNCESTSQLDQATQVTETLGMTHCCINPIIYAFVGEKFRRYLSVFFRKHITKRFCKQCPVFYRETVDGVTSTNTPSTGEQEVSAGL
Put plainly: MCP-1 Receptor Binding Assay in THP-1 Cells. As to conditions: MCP-1 binding to CCR2; test concentration of 25 μM, unless indicated otherwise; read-out: % Inhibition Ligand Binding. The procedure:
THP-1 cells were obtained from American Type Culture Collection (Manassas, Va., USA). […] The cell density was maintained between 0.5×10^6 cells/mL.
Cells were then harvested onto a filter plate, dried, and 20 μL of Microscint 20 was added to each well. Plates were counted in a TopCount NXT, Microplate Scintillation & Luminescence Counter (Perkin-Elmer Life Sciences, Inc. Boston, Mass.). Blank values (buffer only) were subtracted from all values and drug treated values were compared to vehicle treated values. 1 μM cold MCP-1 was used for nonspecific binding.
For `C[N+]1(Cc2ccc(CNC(=O)C=Cc3ccc(Cl)c(Cl)c3)cc2)CCOCC1` [Cpd 58, 4-(4-{[3-(3,4-dichloro-phenyl)-acryloylamino]-methyl}-benzyl)-4-methyl-morpholin-4-ium iodide], the inhibition at 25 µM is 53%.

In the case of `C[N+]1(Cc2ccc(NC(=O)C=Cc3ccc(Cl)c(Cl)c3)cc2)CCOCC1` [Cpd 60, 4-{4-[3-(3,4-dichloro-phenyl)-acryloylamino]-benzyl}-4-methyl-morpholin-4-ium iodide], the inhibition at 25 µM was found to be 20%.

For `C[N+]1(Cc2ccc(CNC(=O)C=Cc3cccc(C(F)(F)F)c3)cc2)CCOCC1` [Cpd 62, 4-methyl-4-(4-{[3-(3-trifluoromethyl-phenyl)-acryloylamino]-methyl}-benzyl)-morpholin-4-ium iodide], the inhibition at 25 µM was 9%.

Turning to `C[N+](C)(Cc1ccc(CNC(=O)C=Cc2cccc(C(F)(F)F)c2)cc1)C1CCOCC1` [Cpd 64, dimethyl-(tetrahydro-pyran-4-yl)-(4-{[3-(3-trifluoromethyl-phenyl)-acryloylamino]-methyl}-benzyl)-ammonium iodide], the inhibition at 25 µM amounted to 63%.

As to `C[N+](C)(Cc1cccc(NC(=O)c2cccc(C(F)(F)F)c2)c1)C1CCOCC1` [Cpd 65, dimethyl-(tetrahydro-pyran-4-yl)-[3-(3-trifluoromethyl-benzoylamino)-benzyl]-ammonium iodide], the inhibition at 25 µM is 61%.

As for `C[N+](C)(Cc1ccc(NC(=O)c2cccc(Cl)c2Cl)cc1)C1CCCCC1` [Cpd 77, cyclohexyl-[4-(2,3-dichloro-benzoylamino)-benzyl]-dimethyl-ammonium iodide], the inhibition at 25 µM worked out at 53%.

For the compound `C[N+](C)(Cc1ccc(NC(=O)c2cccc3ccccc23)cc1)C1CCOCC1` [Cpd 89, dimethyl-{4-[(naphthalene-1-carbonyl)-amino]-benzyl}-(tetrahydro-pyran-4-yl)-ammonium iodide], the inhibition at 25 µM was 29%.

Staying with this assay, now noted: THP-1 cells, 0.5 nM 125I labeled MCP-1, 2 hours at 30° C.; read-out: Mean Ligand Binding IC50 (inhibition of MCP-1 binding to CCR2).
`C[N+]1(Cc2ccc(CNC(=O)C=Cc3ccc(Cl)c(Cl)c3)cc2)CCCCC1` [Cpd 48, 1-(4-{[3-(3,4-dichloro-phenyl)-acryloylamino]-methyl}-benzyl)-1-methyl-piperidinium iodide]: the IC50 amounted to 8400 nM.

Turning to `C[N+]1(Cc2ccc(CNC(=O)C=Cc3cccc(Br)c3)cc2)CCCCC1` [Cpd 49, 1-(4-{[3-(3-bromo-phenyl)-acryloylamino]-methyl}-benzyl)-1-methyl-piperidinium iodide], the IC50 amounted to 11900 nM.

Consider `C[N+]1(Cc2ccc(NC(=O)c3ccc(Cl)c(Cl)c3)cc2)CCCCC1` [Cpd 50, 1-[4-(3,4-dichloro-benzoylamino)-benzyl]-1-methyl-piperidinium iodide], for which the IC50 amounted to 2600 nM.

On to `C[N+]1(Cc2ccc(NC(=O)c3ccc(Cl)c(Cl)c3)cc2)CCCC1` [Cpd 51, 1-[4-(3,4-dichloro-benzoylamino)-benzyl]-1-methyl-pyrrolidinium iodide], for which the IC50 was 2700 nM.

As to `C[N+]1(Cc2cccc(NC(=O)C=Cc3cccc(Br)c3)c2)CCCCC1` [Cpd 52, 1-{3-[3-(3-bromo-phenyl)-acryloylamino]-benzyl}-1-methyl-piperidinium iodide], the IC50 is 2600 nM.

With `C[N+]1(Cc2ccc(NC(=O)C=Cc3ccc(Cl)c(Cl)c3)cc2)CCCCC1` [Cpd 53, 1-{4-[3-(3,4-dichloro-phenyl)-acryloylamino]-benzyl}-1-methyl-piperidinium iodide], the IC50 was found to be 3200 nM.

On to `C[N+]1(Cc2ccc(NC(=O)C=Cc3cccc(Br)c3)cc2)CCCCC1` [Cpd 55, 1-{4-[3-(3-bromo-phenyl)-acryloylamino]-benzyl}-1-methyl-piperidinium iodide], for which the IC50 is 5400 nM.

`C[N+]1(Cc2cccc(NC(=O)c3cccc(C(F)(F)F)c3)c2)CCCCC1` [Cpd 56, 1-methyl-1-[3-(3-trifluoromethyl-benzoylamino)-benzyl]-piperidinium iodide]: the IC50 is 11800 nM.

As to `C[N+]1(Cc2ccc(NC(=O)C=Cc3cccc(C(F)(F)F)c3)cc2)CCCCC1` [Cpd 57, 1-methyl-1-{4-[3-(3-trifluoromethyl-phenyl)-acryloylamino]-benzyl}-piperidinium iodide], the IC50 worked out at 13300 nM.

`C[N+]1(Cc2ccc(NC(=O)c3ccc(Cl)c(Cl)c3)cc2)CCOCC1` [Cpd 59, 4-[4-(3,4-dichloro-benzoylamino)-benzyl]-4-methyl-morpholin-4-ium iodide]: the IC50 came to 10000 nM.

Take `C[N+]1(Cc2ccc(NC(=O)C=Cc3cccc(Br)c3)cc2)CCOCC1` [Cpd 61, 4-{4-[3-(3-bromo-phenyl)-acryloylamino]-benzyl}-4-methyl-morpholin-4-ium iodide]: the IC50 came to 2700 nM.

In the case of `C=CC[N+](C)(Cc1ccc(NC(=O)C=Cc2cccc(Br)c2)cc1)C1CCSCC1` (centres unmarked) [Cpd 63, allyl-{4-[3-(3-bromo-phenyl)-acryloylamino]-benzyl}-methyl-(tetrahydro-thiopyran-4-yl)-ammonium iodide], the half-inhibitory concentration (IC50) stood at 3500 nM.

Take `Cc1cccc(C=CC(=O)Nc2ccc(C[N+](C)(C)C3CCOCC3)cc2)c1` [Cpd 66, dimethyl-(tetrahydro-pyran-4-yl)-[4-(3-m-tolyl-acryloylamino)-benzyl]-ammonium iodide]: the 50% inhibitory concentration (IC50) is 1700 nM.

Turning to `C[N+](C)(Cc1ccc(NC(=O)C=Cc2cccc(C(F)(F)F)c2)cc1)C1CCOCC1` [Cpd 68, dimethyl-(tetrahydro-pyran-4-yl)-{4-[3-(3-trifluoromethyl-phenyl)-acryloylamino]-benzyl}-ammonium iodide], the IC50 was determined as 1500 nM.

As to `C[N+](C)(Cc1ccc(NC(=O)C=Cc2ccc(Cl)c(Cl)c2)cc1)C1CCCCC1` [Cpd 71, cyclohexyl-{4-[3-(3,4-dichloro-phenyl)-acryloylamino]-benzyl}-dimethyl-ammonium iodide], the IC50 is 170 nM and 320 nM.

Consider `C[N+](C)(Cc1ccc(NC(=O)C=Cc2cccc(Br)c2)cc1)C1CCCCC1` [Cpd 72, {4-[3-(3-bromo-phenyl)-acryloylamino]-benzyl}-cyclohexyl-dimethyl-ammonium iodide], for which the IC50 worked out at 580 nM.

`C[N+](C)(Cc1ccc(NC(=O)c2cccc(Br)c2)cc1)C1CCCCC1` [Cpd 73, [4-(3-bromo-benzoylamino)-benzyl]-cyclohexyl-dimethyl-ammonium iodide]: the IC50 was 440 nM.

As to `C[N+](C)(Cc1ccc(NC(=O)c2cccc(C(F)(F)F)c2)cc1)C1CCCCC1` [Cpd 74, cyclohexyl-dimethyl-[4-(3-trifluoromethyl-benzoylamino)-benzyl]-ammonium iodide], the IC50 was 1500 nM.

For `C[N+](C)(Cc1ccc(NC(=O)c2ccc(F)c(Cl)c2)cc1)C1CCCCC1` [Cpd 76, [4-(3-chloro-4-fluoro-benzoylamino)-benzyl]-cyclohexyl-dimethyl-ammonium iodide], the IC50 stood at 160 nM.

In the case of `C[N+](C)(Cc1ccc(NC(=O)c2c(Cl)cccc2Cl)cc1)C1CCCCC1` [Cpd 78, cyclohexyl-[4-(2,6-dichloro-benzoylamino)-benzyl]-dimethyl-ammonium iodide], the IC50 came to 13400 nM.

For the compound `COc1ccc(C(=O)Nc2ccc(C[N+](C)(C)C3CCCCC3)cc2)cc1Cl` [Cpd 79, [4-(3-chloro-4-methoxy-benzoylamino)-benzyl]-cyclohexyl-dimethyl-ammonium iodide], the IC50 was determined as 310 nM.

Turning to `Cc1ccc(C(=O)Nc2ccc(C[N+](C)(C)C3CCCCC3)cc2)cc1Cl` [Cpd 80, [4-(3-chloro-4-methyl-benzoylamino)-benzyl]-cyclohexyl-dimethyl-ammonium iodide], the IC50 is 30 nM.

Consider `C[N+](C)(Cc1ccc(NC(=O)c2cc(Cl)ccc2Cl)cc1)C1CCCCC1` [Cpd 81, cyclohexyl-[4-(2,5-dichloro-benzoylamino)-benzyl]-dimethyl-ammonium iodide], for which the IC50 turned out to be 3000 nM.

With `C[N+](C)(Cc1cccc(NC(=O)C=Cc2ccc(Cl)c(Cl)c2)c1)C1CCCCC1` [Cpd 83, cyclohexyl-{3-[3-(3,4-dichloro-phenyl)-acryloylamino]-benzyl}-dimethyl-ammonium iodide], the IC50 is 1200 nM.

Consider `C[N+](C)(Cc1cccc(NC(=O)C=Cc2ccc(F)cc2)c1)C1CCCCC1` [Cpd 84, cyclohexyl-{3-[3-(4-fluoro-phenyl)-acryloylamino]-benzyl}-dimethyl-ammonium iodide], for which the IC50 came out at 3200 nM.

On to `C[N+](C)(Cc1ccc(NC(=O)c2cccc(-c3ccc(C(F)(F)F)cc3)c2)cc1)C1CCOCC1` [Cpd 85, dimethyl-(tetrahydro-pyran-4-yl)-{4-[(4′-trifluoromethyl-biphenyl-3-carbonyl)-amino]-benzyl}-ammonium iodide], for which the IC50 was 5200 nM.

On to `Cc1ccc(-c2cccc(C(=O)Nc3ccc(C[N+](C)(C)C4CCCCC4)cc3)c2)cc1` [Cpd 86, cyclohexyl-dimethyl-{4-[(4′-methyl-biphenyl-3-carbonyl)-amino]-benzyl}-ammonium iodide], for which the IC50 is 6000 nM.

Regarding `C[N+](C)(Cc1ccc(NC(=O)c2ccc(-c3ccccc3)cc2)cc1)C1CCOCC1` [Cpd 88, {4-[(biphenyl-4-carbonyl)-amino]-benzyl}-dimethyl-(tetrahydro-pyran-4-yl)-ammonium iodide], the IC50 worked out at 870 nM.

A word on the inhibition: it is the change of the read-out against control, counted positive when it falls. As usually defined, the IC50 is the concentration that gives 50% inhibition.
